Measurements reported in paper PMC6388407 (Toxicological sciences : an official journal of the Society …, 2018).
Like-named read-outs stand apart in the source and are kept apart here.

Experiments:
[1] = tested on: L5178Y mouse lymphoma cells; test: Cellular ATP level assay; type: cell-based; conditions: read-out: IC20, ATP assay; L5178Y cells, 4-h treatment
[2] = tested on: thymidine kinase (Tk) gene of the L5178Y/Tk+/− −3.7.2C mouse lymphoma cell line; test: Mouse lymphoma assay; type: cell-based; conditions: for BMDL10, MLA without S9: lower limit of the 10% BMD, Hill model of PROAST, MF data; for Ranking, MLA without S9: potency ranking by BMDL10, 1 = most potent
[3] = tested on: L5178Y mouse lymphoma cells; test: Alkaline Comet assay; type: cell-based; conditions: for lowest concentration that induced significant DNA damage / highest percentage of DNA in tail: 4-h treatment; for lowest concentration that induced significant DNA damage: absence of S9; for highest percentage of DNA in tail: absence of S9, background approximately 5%; for BMDL10, Comet assay: lower limit of the 10% BMD, Hill model of PROAST, %DNA in tail data, without S9
[4] = tested on: L5178Y mouse lymphoma cells; test: CellTiter-Blue cell viability assay; type: cell-based; conditions: read-out: IC20, Blue assay; L5178Y cells, 4-h treatment
[5] = tested on: thymidine kinase (Tk) gene of the L5178Y/Tk+/− −3.7.2C mouse lymphoma cell line; test: Mouse lymphoma assay; type: cell-based; conditions: for BMDL10, MLA with S9: lower limit of the 10% BMD, Hill model of PROAST, MF data; for Ranking, MLA with S9: potency ranking by BMDL10, 1 = most potent
[6] = tested on: L5178Y mouse lymphoma cells; test: MTS cell proliferation assay; type: cell-based; conditions: 4-h treatment; for reduction in cell viability, MTS assay: at the lowest concentrations tested; for IC20: read-out: IC20, MTS assay, L5178Y cells
[7] = tested on: thymidine kinase (Tk) gene of the L5178Y/Tk+/− −3.7.2C mouse lymphoma cell line; conditions: ref Guo et al., 2013, cited from earlier work
[8] = tested on: thymidine kinase (Tk) gene of the L5178Y/Tk+/− −3.7.2C mouse lymphoma cell line; conditions: with S9, at concentration that produced 10%–20% RTG; ref Guo et al., 2013; cited from earlier work
[9] = tested on: TK6 human lymphoblastoid cells; conditions: ref Guo et al., 2013; cited from earlier work
[10] = tested on: Tk mutants of L5178Y mouse lymphoma cells; test: LOH evaluation of Tk mutants from the MLA; type: cell-based; conditions: with vs without S9, p < .05
[11] = Cellular ATP level assay; type: cell-based, mouse; conditions: mouse, L5178Y mouse lymphoma cells
[12] = tested on: Chinese hamster cells; conditions: ref Mitchell et al., 1991, cited from earlier work
[13] = tested on: Chinese hamster ovary AS52 cells; conditions: CHO AS52 cells; ref DeGraff et al., 1992; cited from earlier work
[14] = CellTiter-Blue cell viability assay; type: cell-based, mouse; conditions: mouse, L5178Y mouse lymphoma cells
[15] = MTS cell proliferation assay; type: cell-based, mouse; conditions: mouse
[16] = absence of S9, at the cytotoxicity limit for the MLA
[17] = without S9, at concentration that produced 10%–20% RTG

| Compound | IC20 [1] [µM] | mutant frequency (MF) [2, 16] | BMDL10, MLA without S9 [2] | Ranking, MLA without S9 [2] | lowest concentration that induced significant DNA damage [3] [mM] | highest percentage of DNA in tail [3] [%] | BMDL10, Comet assay [3] | IC20 [4] [µM] | BMDL10, MLA with S9 [5] | Ranking, MLA with S9 [5] | reduction in cell viability, MTS assay [6] | IC20 [6] [µM] | effect of metabolic activation on mutational spectra (LOH) [10] | also measured |
| --- | --- | --- | --- | --- | --- | --- | --- | --- | --- | --- | --- | --- | --- | --- |
| COC1CC(C)(C)N([O])C(C)(C)C1 [4-methoxy-TEMPO] | 3870 | 537 × 10^−6 | 0.756 | 2 | 6 | 13 | 3.358 | 2580 | 0.770 | 3 | approximately 50% | 30 |  | mutant frequency (MF) [2, 17]: 508 per million cells; mutant frequency (MF) ([5]; with S9, at concentration that produced 10%–20% RTG): 961 per million cells |
| CC1(C)CC(=O)CC(C)(C)N1[O] [4-oxo-TEMPO] | 1730 | 584 × 10^−6 | 0.661 | 1 | 3 | 14 | 1.114 | 1950 | 0.058 | 1 |  | 1550 |  |  |
| CC1(C)CCCC(C)(C)N1[O] [TEMPO, 2,2,6,6-tetramethylphiperidine-1-oxyl] | 1920 |  | 0.981 | 3 | 2 | 28 | 0.454 | 4970 | 0.257 | 2 | approximately 50% | 11 | significantly altered | mutant frequency (MF) [7, 16]: 208 × 10^−6; MLA result ([7]; earlier study, with and without 1% S9): mutagenic; mutant frequency (MF) [7, 17]: 208 per million cells; mutant frequency (MF) [8]: 502 per million cells; micronucleus induction [9]: induced micronuclei |
| CC1(C)CC(O)CC(C)(C)N1[O] [4-hydroxy-TEMPO] |  |  | 1.300 | 4 | 4 | 21 | 1.612 |  | 1.024 | 4 | approximately 50% |  | significantly altered | IC20 at 4 h [11]: 6390 µM; radiation protection factor ([12]; 10 mM for 10 min prior to X-irradiation): 1.3; radiation protection factor ([12]; 100 mM for 10 min prior to X-irradiation): 2.5; mutagenicity and toxicity [13]: not mutagenic or toxic; IC20 at 4 h [14]: 1780 µM; IC20 at 4 h [15]: 356 µM |
